According to patent publication US5446025A, “Formulations and method of the percutaneous administration of leuprolide” (Abbott Laboratories, priority 1992, dated 1995):

Format: physicochemical
Protocol: Partitioning studies of leuprolide free base and the acetate, palmitate, and decanesulfonate salts were conducted in Type I glass culture tubes fitted with poly(tetrafluroethylene)-lined caps. Octanol-saturated water was used to prepare solutions of leuprolide free base and the leuprolide salts at concentrations of 500 μg/ml. Ten ml of each solution and 10 ml of water-saturated octanol were placed in the glass tubes which were then tightly capped and shaken for 24 hours at 30° C. At the end of this time, the tubes were centrifuged at 2000 rpm for ten minutes. The water and octanol layers were separated and each analyzed for the concentrations of leuprolide or leuprolide salt. The octanol-water distribution coefficients, Kd, was calculated from the ratio of concentration in the non-aqueous phase and the aqueous phase.

Lipophilicity relative to the acetate salt, as measured by the octanol/water distribution coefficient: roughly six
SMILES: CCNC(=O)[C@@H]1CCCN1C(=O)[C@H](CCCNC(=N)N)NC(=O)[C@H](CC(C)C)NC(=O)[C@@H](CC(C)C)NC(=O)[C@H](Cc1ccc(O)cc1)NC(=O)[C@H](CO)NC(=O)[C@H](Cc1c[nH]c2ccccc12)NC(=O)[C@H](Cc1c[nH]cn1)NC(=O)[C@@H]1CCC(=O)N1 [Leuprolide free base, leuprolide]
